Where a name gives a salt, the structure may show the parent alone. Blank lines part the entries; values can stand above or below the compound they belong to.
Legend:
TNKS-1 = target: T1, TNKS-1 (Homo sapiens, UniProt O95271); assay: TNKS1 Histone Ribosylation Colorimetric Assay Kit (tankyrase-1 colorimetric activity assay); type: biochemical; conditions: for inhibition at 10 µM: read-out: TNKS-1 inhibitory activity (10 μM), 10 μM compound
T1 construct: purchased BPS Bioscience 80582
T1 sequence (O95271 1-1327): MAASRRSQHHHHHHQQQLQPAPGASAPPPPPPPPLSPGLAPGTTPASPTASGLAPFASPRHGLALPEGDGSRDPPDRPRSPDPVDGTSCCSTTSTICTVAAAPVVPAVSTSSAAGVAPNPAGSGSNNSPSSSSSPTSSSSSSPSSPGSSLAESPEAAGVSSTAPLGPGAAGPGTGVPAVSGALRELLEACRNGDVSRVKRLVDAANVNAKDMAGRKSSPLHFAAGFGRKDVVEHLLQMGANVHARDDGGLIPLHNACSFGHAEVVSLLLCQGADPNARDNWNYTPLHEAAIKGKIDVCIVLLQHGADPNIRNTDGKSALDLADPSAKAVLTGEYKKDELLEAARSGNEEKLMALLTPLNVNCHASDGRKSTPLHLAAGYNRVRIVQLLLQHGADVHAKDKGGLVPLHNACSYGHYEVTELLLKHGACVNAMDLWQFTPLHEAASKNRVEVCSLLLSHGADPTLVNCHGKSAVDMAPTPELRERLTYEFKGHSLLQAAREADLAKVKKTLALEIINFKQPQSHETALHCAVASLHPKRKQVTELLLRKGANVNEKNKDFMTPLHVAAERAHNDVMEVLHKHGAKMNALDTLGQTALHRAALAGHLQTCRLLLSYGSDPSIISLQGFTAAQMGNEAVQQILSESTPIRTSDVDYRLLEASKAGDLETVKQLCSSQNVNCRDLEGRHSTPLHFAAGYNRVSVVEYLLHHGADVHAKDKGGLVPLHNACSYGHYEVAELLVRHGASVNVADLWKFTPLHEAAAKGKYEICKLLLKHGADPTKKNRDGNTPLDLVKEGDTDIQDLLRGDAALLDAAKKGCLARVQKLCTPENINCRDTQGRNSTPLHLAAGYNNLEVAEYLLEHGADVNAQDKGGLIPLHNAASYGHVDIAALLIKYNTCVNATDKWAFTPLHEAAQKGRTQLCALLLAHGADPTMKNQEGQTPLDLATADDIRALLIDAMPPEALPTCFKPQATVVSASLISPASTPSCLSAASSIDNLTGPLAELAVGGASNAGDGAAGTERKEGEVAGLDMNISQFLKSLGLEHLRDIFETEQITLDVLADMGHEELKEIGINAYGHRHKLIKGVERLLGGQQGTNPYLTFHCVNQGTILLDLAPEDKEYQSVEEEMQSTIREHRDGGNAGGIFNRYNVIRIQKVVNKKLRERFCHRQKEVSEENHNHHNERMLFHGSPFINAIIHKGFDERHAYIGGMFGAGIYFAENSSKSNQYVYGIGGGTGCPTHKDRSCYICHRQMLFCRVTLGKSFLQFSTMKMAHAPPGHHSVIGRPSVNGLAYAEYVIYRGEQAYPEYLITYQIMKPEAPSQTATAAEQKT

TNKS-2 = target: T2, TNKS-2 (Homo sapiens, UniProt Q9H2K2); assay: TNKS-2 enzymatic activity inhibition; type: biochemical
T2 sequence (Q9H2K2 1-1166): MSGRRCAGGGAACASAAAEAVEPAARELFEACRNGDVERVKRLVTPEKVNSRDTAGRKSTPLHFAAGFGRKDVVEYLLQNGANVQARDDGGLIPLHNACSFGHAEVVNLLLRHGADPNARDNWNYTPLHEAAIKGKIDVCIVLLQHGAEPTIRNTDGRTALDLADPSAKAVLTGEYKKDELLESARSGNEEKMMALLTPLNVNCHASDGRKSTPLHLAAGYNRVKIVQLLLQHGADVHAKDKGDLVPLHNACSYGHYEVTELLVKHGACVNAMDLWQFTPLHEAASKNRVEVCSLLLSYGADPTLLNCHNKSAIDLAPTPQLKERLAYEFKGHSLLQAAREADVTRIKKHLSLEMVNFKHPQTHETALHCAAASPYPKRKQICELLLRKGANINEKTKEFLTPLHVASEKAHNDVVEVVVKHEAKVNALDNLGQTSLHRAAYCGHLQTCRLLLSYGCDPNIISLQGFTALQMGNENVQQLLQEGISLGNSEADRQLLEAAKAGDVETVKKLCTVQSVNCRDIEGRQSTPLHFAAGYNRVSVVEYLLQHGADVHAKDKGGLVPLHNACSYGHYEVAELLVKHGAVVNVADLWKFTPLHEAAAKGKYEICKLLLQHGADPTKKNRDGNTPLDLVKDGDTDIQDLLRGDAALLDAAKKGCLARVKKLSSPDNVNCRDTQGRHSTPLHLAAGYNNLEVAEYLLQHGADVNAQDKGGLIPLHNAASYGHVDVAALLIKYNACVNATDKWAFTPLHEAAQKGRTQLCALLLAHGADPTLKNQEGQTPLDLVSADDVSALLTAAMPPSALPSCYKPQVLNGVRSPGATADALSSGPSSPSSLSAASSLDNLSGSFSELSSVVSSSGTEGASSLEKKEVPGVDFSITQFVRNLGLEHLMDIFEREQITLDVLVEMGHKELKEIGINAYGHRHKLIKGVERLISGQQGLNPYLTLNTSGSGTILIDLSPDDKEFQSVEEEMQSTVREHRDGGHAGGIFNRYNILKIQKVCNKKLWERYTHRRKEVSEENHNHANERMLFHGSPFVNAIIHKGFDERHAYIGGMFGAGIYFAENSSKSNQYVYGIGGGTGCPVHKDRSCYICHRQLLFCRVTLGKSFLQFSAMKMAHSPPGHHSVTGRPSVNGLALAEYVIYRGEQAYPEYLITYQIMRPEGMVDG

AXIN2 protein = assay: Western blotting of AXIN2 protein in colon cancer cell lines; type: cell-based, human; conditions: COLO320DM and SW403, 10 μM, 24 hours
Source text: (§1) After protein extraction, proteins were quantified through Western blotting (Bio-Rad, USA).

[1] = test system: beta-catenin subgenes (AXIN2, CCND1, cMYC, FGF20); assay: Real-time PCR of beta-catenin subgene expression; type: cell-based, human; conditions: COLO320DM, 10 μM, 24 hours
Source text: After RNA extraction, cDNA was synthesized to quantify gene expression via real-time PCR.

PARP-2 = PARP-2 (Homo sapiens, UniProt Q9UGN5); assay: PARP-2 enzymatic activity inhibition; type: biochemical
[2] = test system: activated beta-catenin proteins; assay: Western blotting of activated beta-catenin protein in colon cancer cell lines; type: cell-based, human; conditions: COLO320DM and SW403, 10 μM, 24 hours
Source text: as §1

[3] = test system: colon cancer cell line COLO320DM; assay: Cell viability by colony counting (methylene blue staining); conditions: 10 days; for cell viability (in words): 2.5 μM to 40 μM; for cell viability inhibited: 40 μM
[4] = test system: beta-catenin transcriptional activity; assay: TCF/luciferase assay of beta-catenin transcriptional activity in HEK cells; type: cell-based; conditions: Homo sapiens, HEK293, read-out: β-catenin IC50 in HEK cells
Description: To determine whether beta-catenin transcriptional activity is inhibited by the aryl-piperidine derivative compounds, compounds TI-61815 and TI-61910 were treated at various concentrations and examined in HEK cells using the TCF/luciferase assay system.

PARP-1 = target: T3, PARP-1 (Homo sapiens, UniProt P09874); assay: PARP-1 colorimetric activity assay kit; type: biochemical; conditions: for inhibition of enzymatic activity of PARP-1 (in words): 1 μM
T3 construct: purchased BPS Bioscience 80580

[5] = test system: colon cancer cell line COLO320DM; assay: Cell viability by colony counting after co-treatment with 5-FU; type: cell-based; conditions: Homo sapiens, COLO 320DM, 240 h, 10 days, read-out: cell viability inhibited when co-treated with 5-FU, compared to the sole treatment; for cytotoxicity at 5 µM: 5 μM compound + 0.5 μM 5-FU; for cytotoxicity at 10 µM: 10 μM compound + 0.5 μM 5-FU
Description: Each cell line was purchased from the American Type Culture Collection (ATCC) and cultured respectively in RPMI 1640 (Roswell Park Memorial Institute 1640) medium supplemented with 10% fetal bovine serum (FBS), 100 μg/ml streptomycin, and 100 units/ml penicillin in the presence of 5% CO2 at 37° C.
Afterwards, the cell viability was identified by counting the number of colonies by staining with 1.5% methylene blue.

T3 sequence (P09874 whole entry): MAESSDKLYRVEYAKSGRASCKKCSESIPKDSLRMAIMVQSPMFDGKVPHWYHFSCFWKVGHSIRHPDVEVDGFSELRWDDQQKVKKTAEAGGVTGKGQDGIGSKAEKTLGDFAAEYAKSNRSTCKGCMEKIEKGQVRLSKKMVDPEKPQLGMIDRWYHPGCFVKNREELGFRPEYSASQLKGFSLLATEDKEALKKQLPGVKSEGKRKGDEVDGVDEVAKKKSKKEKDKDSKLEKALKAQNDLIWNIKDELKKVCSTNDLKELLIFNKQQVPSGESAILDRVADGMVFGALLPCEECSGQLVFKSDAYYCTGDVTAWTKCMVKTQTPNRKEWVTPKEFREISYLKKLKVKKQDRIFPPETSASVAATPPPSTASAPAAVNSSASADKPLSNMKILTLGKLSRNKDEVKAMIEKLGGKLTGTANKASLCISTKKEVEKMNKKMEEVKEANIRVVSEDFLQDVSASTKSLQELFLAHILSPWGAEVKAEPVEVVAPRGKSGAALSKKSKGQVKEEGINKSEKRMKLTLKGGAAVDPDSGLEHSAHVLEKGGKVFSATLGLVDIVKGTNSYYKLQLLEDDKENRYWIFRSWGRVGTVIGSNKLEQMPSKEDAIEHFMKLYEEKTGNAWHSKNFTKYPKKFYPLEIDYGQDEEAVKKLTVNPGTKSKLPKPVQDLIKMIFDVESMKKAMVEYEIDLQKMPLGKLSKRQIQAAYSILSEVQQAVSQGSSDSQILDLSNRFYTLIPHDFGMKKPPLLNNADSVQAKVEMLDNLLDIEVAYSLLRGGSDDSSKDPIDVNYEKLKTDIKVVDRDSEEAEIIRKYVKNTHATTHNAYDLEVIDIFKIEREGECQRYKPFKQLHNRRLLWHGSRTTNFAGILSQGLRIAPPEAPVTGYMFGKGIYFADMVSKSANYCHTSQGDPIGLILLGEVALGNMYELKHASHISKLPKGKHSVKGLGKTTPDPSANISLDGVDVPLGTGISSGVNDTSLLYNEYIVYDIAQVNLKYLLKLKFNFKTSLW
PARP-2, sequence (Q9UGN5 whole entry): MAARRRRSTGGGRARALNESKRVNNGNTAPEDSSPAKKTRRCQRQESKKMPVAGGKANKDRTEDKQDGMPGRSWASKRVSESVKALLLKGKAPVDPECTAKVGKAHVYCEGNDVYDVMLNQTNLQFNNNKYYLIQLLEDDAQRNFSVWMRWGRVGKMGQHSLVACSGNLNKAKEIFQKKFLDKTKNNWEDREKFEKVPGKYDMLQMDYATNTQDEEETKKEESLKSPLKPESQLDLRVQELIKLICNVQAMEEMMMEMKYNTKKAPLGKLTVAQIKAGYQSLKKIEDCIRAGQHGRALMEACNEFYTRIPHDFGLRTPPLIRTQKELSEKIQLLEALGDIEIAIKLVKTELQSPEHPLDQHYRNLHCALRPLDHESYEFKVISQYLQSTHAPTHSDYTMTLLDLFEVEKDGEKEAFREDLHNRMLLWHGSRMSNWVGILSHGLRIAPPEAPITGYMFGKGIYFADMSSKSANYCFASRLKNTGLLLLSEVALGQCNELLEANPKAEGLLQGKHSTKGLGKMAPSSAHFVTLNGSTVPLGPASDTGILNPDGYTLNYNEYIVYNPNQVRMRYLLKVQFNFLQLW

Structure (SMILES): O=C(CCC1CCN(c2ccc([N+](=O)[O-])cc2[N+](=O)[O-])CC1)Nc1nnc2ccccn12 [TI-62195]
inhibition at 10 µM (TNKS-1): ≥ 95%

Structure (SMILES): N#Cc1ccccc1N1CCC(CCCC(=O)Nc2nnc3ccccn23)CC1 [TI-62116, N-([1,2,4]triazolo[4,3-a]pyridin-3-yl)-4-(1-(2-cyanophenyl)piperidin-4-yl)butanamide]
inhibition at 10 µM (TNKS-1): 99 ± 0.1%

Structure (SMILES): N#Cc1ccccc1N1CCC(CCC(=O)Nc2cnc3cccnn23)CC1 [TI-62121, 3-(1-(2-cyanophenyl)piperidin-4-yl)-N-(imidazo[1,2-b]pyridazin-3-yl)propanamide]
inhibition at 10 µM (TNKS-1): 17 ± 1.5%

Structure (SMILES): N#Cc1ccccc1N1CCC(CCC(=O)Nc2cnc3ccccn23)CC1 [TI-62122, 3-(1-(2-cyanophenyl)piperidin-4-yl)-N-(imidazo[1,2-a]pyridin-3-yl)propanamid]
inhibition at 10 µM (TNKS-1): 10 ± 0.9%

Structure (SMILES): O=C(CCC1CCN(c2ccccc2[N+](=O)[O-])CC1)Nc1nnc2ccccn12 [TI-62188, N-([1,2,4]triazolo[4,3-a]pyridin-3-yl)-3-(1-(2-nitrophenyl)piperidin-4-yl)propanamide]
inhibition at 10 µM (TNKS-1): ≥ 95%

Structure (SMILES): O=C(CCC1CCN(c2ccc([N+](=O)[O-])cc2)CC1)Nc1nnc2ccccn12 [TI-62190]
inhibition at 10 µM (TNKS-1): 96 ± 0.2%

Structure (SMILES): CC(C)(C)OC(=O)N(CC(=O)Nc1nnc2ccccn12)C1CCN(c2ccccc2C#N)CC1 [TI-62197, tert-Butyl(2-([1,2,4]triazolo[4,3-a]pyridin-3-ylamino)-2-oxoethyl)(1-(2-cyanophenyl)piperidin-4-yl) carbamate]
inhibition at 10 µM (TNKS-1): 3 ± 0.9%

Structure (SMILES): N#Cc1ccccc1N1CCC(NCC(=O)Nc2nnc3ccccn23)CC1 [TI-62198, N-([1,2,4]triazolo[4,3-a]pyridin-3-yl)-2-((1-(2-cyanophenyl)piperidin-4-yl)amino)acetamide trifluoroacetic acid salt]
inhibition at 10 µM (TNKS-1): 72 ± 0.3%

Structure (SMILES): N#Cc1ccccc1N1CCC(CC(=O)Nc2nnc3ccccn23)CC1 [TI-61815, N-([1,2,4]triazolo[4,3-a]pyridin-3-yl)-2-(1-(2-cyanophenyl)piperidin-4-yl)acetamide]
IC50 (TNKS-2): 49 nM | AXIN2 protein levels (AXIN2 protein): stabilization of AXIN2 protein levels | expression levels of beta-catenin subgenes (AXIN2, CCND1, cMYC, FGF20) [1]: inhibited the expression levels of beta-catenin subgenes | IC50 (PARP-2): 6060 nM | levels of the activated beta-catenin proteins [2]: inhibited levels of the activated beta-catenin proteins | cell viability (in words) [3]: decreased in a concentration-dependent manner | cell viability inhibited [3]: 61.4% | IC50 [4]: 830 nM | IC50 (PARP-1): 7540 nM | inhibition of enzymatic activity of PARP-1 (in words) (PARP-1): almost no decrease in the inhibition of enzymatic activity of PARP-1 | IC50 (TNKS-1): 64 nM | inhibition at 10 µM (TNKS-1): ≥ 95% | cytotoxicity at 5 µM [5]: 12.4% | cytotoxicity at 10 µM [5]: 27.8%

Structure (SMILES): N#Cc1ccccc1N1CCC(CCC(=O)Nc2nnc3ccccn23)CC1 [TI-61910, N-([1,2,4]triazolo[4,3-a]pyridin-3-yl)-3-(1-(2-cyanophenyl)piperidin-4-yl)propanamide]
IC50 (TNKS-2): 4 nM | AXIN2 protein levels (AXIN2 protein): stabilization of AXIN2 protein levels | expression levels of beta-catenin subgenes (AXIN2, CCND1, cMYC, FGF20) [1]: inhibited the expression levels of beta-catenin subgenes | IC50 (PARP-2): > 10000 nM | levels of the activated beta-catenin proteins [2]: inhibited levels of the activated beta-catenin proteins | cell viability (in words) [3]: decreased in a concentration-dependent manner | cell viability inhibited [3]: 60.8% | IC50 [4]: 490 nM | IC50 (PARP-1): > 10000 nM | inhibition of enzymatic activity of PARP-1 (in words) (PARP-1): almost no decrease in the inhibition of enzymatic activity of PARP-1 | IC50 (TNKS-1): 18 nM | inhibition at 10 µM (TNKS-1): ≥ 95% | cytotoxicity at 2.5 µM ([5]; 2.5 μM compound + 0.5 μM 5-FU): 26% | cytotoxicity at 5 µM [5]: 28.3% | cytotoxicity at 10 µM [5]: 35.5%

Further lines, results first:

inhibition at 10 µM (TNKS-1): 98 ± 0.1%
Structure (SMILES): CN(CC(=O)Nc1nnc2ccccn12)C1CCN(c2ccccc2C#N)CC1 [TI-62199, N-([1,2,4]triazolo[4,3-a]pyridin-3-yl)-2-((1-(2-cyanophenyl)piperidin-4-yl)(methyl)amino)acetamide]

inhibition at 10 µM (TNKS-1): 100%
Structure (SMILES): O=C(CCC1CCN(c2cccc([N+](=O)[O-])c2)CC1)Nc1nnc2ccccn12 [TI-62189]

inhibition at 10 µM (TNKS-1): 100%
Structure (SMILES): N#Cc1ccc(N2CCC(CCC(=O)Nc3nnc4ccccn34)CC2)cc1 [TI-62194]

inhibition at 10 µM (TNKS-1): 5 ± 1.2%
Structure (SMILES): N#Cc1ccccc1N1CCC(CC(=O)Nc2cnc3cccnn23)CC1 [TI-61816, 2-(1-(2-cyanophenyl)piperidin-4-yl)-N-(imidazo[1,2-b]pyridazin-3-yl)acetamide]

inhibition at 10 µM (TNKS-1): 1 ± 1.7%
Structure (SMILES): N#Cc1ccccc1N1CCC(CCC(=O)Nc2cccc3[nH]ccc23)CC1 [TI-62126]
